Measured values from patent US6737383B1, “Herbicidal oxadiazolidines” (priority 1999, dated 2004).

Assays:
giant foxtail = assay: Test B pre/postemergence giant foxtail; type: in vivo, Setaria faberii
Method in brief: (§1)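 Test chemicals in a non-phytotoxic solvent mixture with surfactant were sprayed preemergence onto planted seeds and postemergence onto plants 2 to 18 cm tall (1- to 4-leaf stage). After twelve to sixteen days in a greenhouse, injury was visually rated against untreated controls from 0 (no effect) to 10 (complete control).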

purple nutsedge = assay: Test B pre/postemergence purple nutsedge; type: in vivo, Cyperus rotundus
Method in brief: as §1

wheat = assay: Test B pre/postemergence wheat; type: in vivo, Triticum aestivum
Method in brief: as §1

bamyardgrass = assay: Test B flood test barnyardgrass; type: in vivo, Echinochloa crus-galli
Method in brief: (§2)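 Plants were grown to the 2-leaf stage before treatment with test chemical, then held in a greenhouse for twelve to sixteen days. Injury was visually rated against untreated controls on a 0–10 scale, where 0 is no effect and 10 is complete control.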

pigweed = assay: Test B pre/postemergence pigweed; type: in vivo, Amaranthus retroflexus
Method in brief: as §1

smallflower flatsedge = assay: Test B flood test smallflower flatsedge; type: in vivo, Cyperus difformis
Method in brief: as §2

corn = assay: Test B pre/postemergence corn; type: in vivo, Zea mays
Method in brief: as §1

velvetleaf = assay: Test B pre/postemergence velvetleaf; type: in vivo, Abutilon theophrasti
Method in brief: as §1

surinam grass = assay: Test B pre/postemergence surinam grass; type: in vivo, Brachiaria decumbens
Method in brief: as §1

cocklebur = assay: Test B pre/postemergence cocklebur; type: in vivo, Xanthium strumarium
Method in brief: as §1

rice = assay: Test B flood test rice; type: in vivo, Oryza sativa
Method in brief: as §2

crabgrass = assay: Test B pre/postemergence crabgrass; type: in vivo, Digitaria sanguinalis
Method in brief: as §1

duck salad = assay: Test B flood test duck salad; type: in vivo, Heteranthera limosa
Method in brief: as §2

blackgrass = assay: Test B pre/postemergence blackgrass; type: in vivo, Alopecurus myosuroides
Method in brief: as §1

sugar beet = assay: Test B pre/postemergence sugar beet; type: in vivo, Beta vulgaris
Method in brief: as §1

rape = assay: Test B pre/postemergence rape; type: in vivo, Brassica napus
Method in brief: as §1

soybean = assay: Test B pre/postemergence soybean; type: in vivo, Glycine max
Method in brief: as §1

morningglory = assay: Test B pre/postemergence morningglory; type: in vivo, Ipomoea hederacea
Method in brief: as §1

bedstraw = assay: Test B pre/postemergence bedstraw; type: in vivo, Galium aparine
Method in brief: as §1

wild oat = assay: Test B pre/postemergence wild oat; type: in vivo, Avena fatua
Method in brief: as §1

[1] = Postemergence, Rate 62 g/ha, scale of 0 to 10, 0 is no effect, 10 is complete control
[2] = Postemergence, Rate 125 g/ha, scale of 0 to 10 where 0 is no effect and 10 is complete control
[3] = Postemergence, Rate 250 g/ha, scale of 0 to 10, 0 is no effect, 10 is complete control
[4] = Postemergence, Rate 500 g/ha, scale of 0 to 10 where 0 is no effect and 10 is complete control
[5] = Preemergence, Rate 62 g/ha, scale 0 to 10 (0 no effect, 10 complete control)
[6] = Preemergence, Rate 125 g/ha, scale of 0 to 10 where 0 is no effect and 10 is complete control
[7] = Preemergence, Rate 500 g/ha, scale of 0 to 10 where 0 is no effect and 10 is complete control
[8] = Rate 62 g/ha, flood test species, Pre-emergence, visual evaluation after twelve to sixteen days
[9] = Rate 125 g/ha, under heading Pre-emergence, flood test species, visual evaluation after twelve to sixteen days
[10] = Rate 250 g/ha, Pre-emergence (flood test species), scale 0 to 10, 0 is no effect, 10 is complete control
[11] = Rate 500 g/ha, Pre-emergence section of Table B, 0 to 10 scale (0 no effect, 10 complete control)

CC(C)N(C(=O)n1oc(=O)n(CC(=O)N(C)C)c1=O)c1ccccc1 [Compound 588]
Giant foxtail plant response rating (giant foxtail; [1]): 0
Plant response rating, Giant foxtail (giant foxtail; [2]): 4
Giant foxtail plant response rating (giant foxtail; [3]): 8
Plant response rating, Giant foxtail (giant foxtail; [4]): 8
Giant foxtail plant response rating (giant foxtail; [5]): 7
Giant foxtail plant response rating (giant foxtail; [6]): 8
Giant foxtail plant response rating (giant foxtail; [7]): 10
Nutsedge plant response rating (purple nutsedge; [1]): 0
Plant response rating, Nutsedge (purple nutsedge; [2]): 0
Plant response rating, Nutsedge (purple nutsedge; [4]): 0
Nutsedge plant response rating (purple nutsedge; [5]): 0
Nutsedge plant response rating (purple nutsedge; [6]): 0
Nutsedge plant response rating (purple nutsedge; [7]): 0
Plant response rating, Wheat (wheat; [2]): 0
Wheat plant response rating (wheat; [3]): 0
Plant response rating, Wheat (wheat; [4]): 3
Wheat plant response rating (wheat; [5]): 0
Wheat plant response rating (wheat; [6]): 2
Wheat plant response rating (wheat; [7]): 8
Plant response rating, Barnyardgrass (0 to 10 scale, 0 is no effect, 10 is complete control) (bamyardgrass; [8]): 0
Barnyardgrass plant response rating (0 to 10 scale, 0 is no effect, 10 is complete control) (bamyardgrass; [9]): 0
Barnyardgrass plant response rating (bamyardgrass; [10]): 0
Barnyardgrass plant response rating (bamyardgrass; [11]): 0
Plant response rating, Redroot pigweed (pigweed; [2]): 0
Redroot pigweed plant response rating (pigweed; [3]): 0
Plant response rating, Redroot pigweed (pigweed; [4]): 0
Redroot pigweed plant response rating (pigweed; [5]): 0
Redroot pigweed plant response rating (pigweed; [6]): 1
Redroot pigweed plant response rating (pigweed; [7]): 9
Plant response rating, S. Flatsedge (0 to 10 scale, 0 is no effect, 10 is complete control) (smallflower flatsedge; [8]): 0
S. Flatsedge plant response rating (0 to 10 scale, 0 is no effect, 10 is complete control) (smallflower flatsedge; [9]): 0
S. Flatsedge plant response rating (smallflower flatsedge; [10]): 0
S. Flatsedge plant response rating (smallflower flatsedge; [11]): 0
Corn plant response rating (corn; [1]): 0
Plant response rating, Corn (corn; [2]): 0
Corn plant response rating (corn; [3]): 0
Plant response rating, Corn (corn; [4]): 0
Corn plant response rating (corn; [5]): 0
Corn plant response rating (corn; [6]): 0
Corn plant response rating (0 to 10 scale) (corn; Preemergence, Rate 250 g/ha): 0
Corn plant response rating (corn; [7]): 5
Plant response rating, Velvetleaf (velvetleaf; [2]): 0
Velvetleaf plant response rating (velvetleaf; [3]): 0
Plant response rating, Velvetleaf (velvetleaf; [4]): 7
Velvetleaf plant response rating (velvetleaf; [5]): 0
Velvetleaf plant response rating (velvetleaf; [6]): 0
Velvetleaf plant response rating (velvetleaf; [7]): 5
B. signalgrass plant response rating (surinam grass; [1]): 0
Plant response rating, B. signalgrass (surinam grass; [2]): 0
B. signalgrass plant response rating (surinam grass; [3]): 4
Plant response rating, B. signalgrass (surinam grass; [4]): 8
B. signalgrass plant response rating (surinam grass; [5]): 0
B. signalgrass plant response rating (surinam grass; [6]): 1
B. signalgrass plant response rating (0 to 10 scale, 0 is no effect, 10 is complete control) (surinam grass; Preemergence, Rate 250 g/ha): 5
B. signalgrass plant response rating (surinam grass; [7]): 8
Cocklebur plant response rating (cocklebur; [1]): 0
Plant response rating, Cocklebur (cocklebur; [2]): 0
Cocklebur plant response rating (cocklebur; [3]): 0
Plant response rating, Cocklebur (cocklebur; [4]): 0
Cocklebur plant response rating (cocklebur; [5]): 0
Cocklebur plant response rating (cocklebur; [6]): 0
Cocklebur plant response rating (0 to 10 scale) (cocklebur; Preemergence, Rate 250 g/ha): 0
Cocklebur plant response rating (cocklebur; [7]): 0
Plant response rating, Rice (0 to 10 scale, 0 is no effect, 10 is complete control) (rice; [8]): 0
Rice plant response rating (0 to 10 scale, 0 is no effect, 10 is complete control) (rice; [9]): 0
Rice plant response rating (rice; [10]): 0
Rice plant response rating (rice; [11]): 0
Crabgrass plant response rating (crabgrass; [1]): 0
Plant response rating, Crabgrass (crabgrass; [2]): 2
Crabgrass plant response rating (crabgrass; [3]): 6
Crabgrass plant response rating (crabgrass; [5]): 3
Crabgrass plant response rating (crabgrass; [6]): 6
Crabgrass plant response rating (crabgrass; [7]): 9
Plant response rating, Ducksalad (0 to 10 scale, 0 is no effect, 10 is complete control) (duck salad; [8]): 0
Ducksalad plant response rating (0 to 10 scale, 0 is no effect, 10 is complete control) (duck salad; [9]): 0
Ducksalad plant response rating (duck salad; [10]): 0
Ducksalad plant response rating (duck salad; [11]): 0
Blackgrass plant response rating (blackgrass; [1]): 0
Plant response rating, Blackgrass (blackgrass; [2]): 0
Blackgrass plant response rating (blackgrass; [3]): 6
Plant response rating, Blackgrass (blackgrass; [4]): 8
Blackgrass plant response rating (blackgrass; [5]): 0
Blackgrass plant response rating (blackgrass; [6]): 3
Blackgrass plant response rating (0 to 10 scale) (blackgrass; Preemergence, Rate 250 g/ha): 5
Blackgrass plant response rating (blackgrass; [7]): 8
Plant response rating, Sugarbeets (sugar beet; [2]): 0
Sugarbeets plant response rating (sugar beet; [3]): 0
Plant response rating, Sugarbeets (sugar beet; [4]): 0
Sugarbeets plant response rating (sugar beet; [5]): 0
Sugarbeets plant response rating (sugar beet; [6]): 0
Sugarbeets plant response rating (sugar beet; [7]): 6
Rape plant response rating (rape; [1]): 0
Plant response rating, Rape (rape; [2]): 0
Rape plant response rating (rape; [3]): 0
Plant response rating, Rape (rape; [4]): 0
Rape plant response rating (rape; [5]): 0
Rape plant response rating (rape; [6]): 0
Rape plant response rating (rape; [7]): 0
Plant response rating, Soybean (soybean; [2]): 4
Soybean plant response rating (soybean; [3]): 4
Plant response rating, Soybean (soybean; [4]): 7
Soybean plant response rating (soybean; [5]): 0
Soybean plant response rating (soybean; [6]): 0
Soybean plant response rating (soybean; [7]): 5
Morningglory plant response rating (morningglory; [1]): 7
Plant response rating, Morningglory (morningglory; [2]): 7
Morningglory plant response rating (morningglory; [3]): 10
Plant response rating, Morningglory (morningglory; [4]): 10
Morningglory plant response rating (morningglory; [5]): 0
Morningglory plant response rating (morningglory; [6]): 0
Morningglory plant response rating (morningglory; [7]): 0
Bedstraw plant response rating (bedstraw; [1]): 0
Bedstraw plant response rating (0 to 10 scale) (bedstraw; Preemergence, Rate 250 g/ha): 0
Plant response rating, Wild oats (wild oat; [2]): 0
Wild oats plant response rating (wild oat; [3]): 0
Plant response rating, Wild oats (wild oat; [4]): 0
Wild oats plant response rating (wild oat; [5]): 0
Wild oats plant response rating (wild oat; [6]): 0
Wild oats plant response rating (wild oat; [7]): 7
